Laboratory results published in patent publication US20080171746A1, “Method for Preventing Cardiovascular Diseases” (priority 2005, published 2008).

Experiments:
PDE5A1 = target: T1, PDE5A1 (Homo sapiens, UniProt O76074); test: Inhibition of PDE5A1 activity, modified SPA (scintillation proximity assay) with recombinant enzyme; format: biochemical; details: for IC50: recombinant PDE5A1, 0.5 μM cGMP substrate, read-out: Inhibition of the PDE5 activity (IC50)
T1 construct: made in house; host or cells: SF21 insect cells (baculovirus; virus made in SF9)
Excerpt: The PDE5A1 (GB no. AF043731) was cloned via PCR from Kidney cDNA. A 5′ fragment was amplified with OZ489 (5′-[…] -3′) and OZ 493 (5′-[…]-3′), a 3′ fragment was amplified with OZ 492 (5′-[…]-3′) and OZ 490 (5′-[…]-3′). Both fragments were cloned into pCR2.1-Topo. Primers OZ 493 and OZ 492 have a nucleotide substitution that doesn't affect the translated sequence, but introduces an EcoRI cutting site. The 2 fragments were cut out of the cloning vector with EcoRI and subcloned together in a single ligation reaction into pBP9, resulting in the construct PZ 287. […] For correct expression it was subcloned with Xmal/Sacl into pBacPak8.
The recombinant baculovirus was prepared by means of homologous recombination in SF9 insect cells. The expression plasmid was cotransfected with Bac-N-Blue (Invitrogen, Groningen, NL) or Baculo-Gold DNA (Pharmingen, Hamburg) using a standard protocol (Pharmingen, Hamburg). Wt virus-free recombinant virus supernatant was selected using plaque assay methods. After that, high-titre virus supernatant was prepared by amplifying 3 times. PDE was expressed in SF21 cells by infecting 2×10^6 cells/ml with an MOI (multiplicity of infection) between 1 and 10 in serum-free SF900 medium (Life Technologies, Paisley, UK). The cells were cultured at 28° C. for 48-72 hours, after which they were pelleted for 5-10 min at 1000 g and 4° C.
The SF21 insect cells were resuspended, at a concentration of approx. 10^7 cells/ml, in ice-cold (4° C.) homogenization buffer (20 mM Tris, pH 8.2, containing the following additions: 140 mM NaCl, 3.8 mM KCl, 1 mM EGTA, 1 mM MgCl2, 10 mM β-mercaptoethanol, 2 mM benzamidine, 0.4 mM Pefablock, 10 μM leupeptin, 10 μM pepstatin A, 5 μM trypsin inhibitor) and disrupted by ultrasonication. The homogenate was then centrifuged for 10 min at 1000× g and the supernatant was stored at −80° C. until subsequent use (see below). The protein content was determined by the Bradford method (BioRad, Munich) using BSA as the standard.
The test volume is 100 μl and contains 20 mM Tris buffer (pH 7.4), 0.1 mg of BSA (bovine serum albumin)/ml, 5 mM Mg^2+, 0.5 μM cGMP (including about 50,000 cpm of [3H]cGMP as a tracer), 1 μl of the respective substance dilution in DMSO and sufficient recombinant PDE (1000× g supernatant, see above) to ensure that 10-20% of the cGMP is converted under the said experimental conditions. […] After a preincubation of 5 min at 37° C., the reaction is started by adding the substrate (cGMP) and the assay is incubated for a further 15 min; after that, it is stopped by adding SPA beads (50 μl). In accordance with the manufacturer's instructions, the SPA beads had previously been resuspended in water, but were then diluted 1:3 (v/v) in water; the diluted solution also contains 3 mM IBMX to ensure a complete PDE activity stop. After the beads have been sedimented (>30 min), the MTP's are analyzed in commercially available luminescence detection devices. The corresponding IC50 values of the compounds for the inhibition of PDE activity are determined from the concentration-effect curves by means of non-linear regression.

[1] = system: isolated guinea pig Langendorff hearts; test: Perfused guinea-pig Langendorff heart (bolus injection into the perfusion flow)
Excerpt: (Modification: Bolus Injection into the Perfusion Flow)
Guinea-pigs (male, Dunkin Hartley, 400-500 g; Charles River, Sulzfeld, Germany) kept in Macrolon® cages (type IV) with free access to food (maintenance diet no. 3418, Provimi-Kliba, CH-4303 Kaiseraugst) and tap water, were killed by cervical dislocation and the thoracic cavity was opened. The heart was rapidly excised and perfused with Krebs-Henseleit solution at a constant pressure of 80 cm H2O ([…]) via retrograde cannulation of the aorta in a Langendorff apparatus. The Krebs-Henseleit solution was composed as follows (mM: NaCl 118, KCl 4.7, CaCl2 1.9, MgSO4 1.2, KH2PO4 1.2, NaHCO3 25.0, and glucose 5.0, at 37° C., gassed with 95% O2/5% CO2, v/v). Through an incision in the left atrium, a water-filled balloon catheter connected to a Statham P 23 Db pressure transducer was introduced into the left ventricle and preloaded to a pressure of […], mimicking the diastolic pressure.
Precoronary perfusate flow (CF, at an initial average passive flow of 11-13 ml/min) was measured using an electromagnetic flow meter. The change in left ventricular isovolumetric pressure amplitude (LVP) calculated by subtracting the diastolic from the systolic pressure, the rate of maximal left ventricular pressure rise (dP/dtmax), and the rate of the spontaneously beating heart (HR) were continuously recorded and monitored by a data acquisition system (Notocord, hem version 3.3; F-78290 Croissy).
Following at least 1 h of perfusion and stabilization of all cardiac parameters, the test drug is injected as 100 μl bolus within 2 s directly into the perfusion tube connected to the aortic inflow and increased threefold after the previous dose has produced its coronary dilatory response and the perfusion flow has returned to pre-drug values again. Thee drug-induced change in cardiac parameters is expressed as percentage of the initial pre-drug values.

Row | PDE5 inhibition in vitro (result in words) (PDE5A1) | IC50 (PDE5A1) | SMILES | heart rate [1] | left ventricular pressure [1] | coronary heart flow [1]
1 | show no effects | > 100 µM | CC(=O)Oc1ccccc1C(=O)O [Aspirin, acetylsalicylic acid] |  |  | 
2 |  |  | Cc1ccc(-c2cc(C(F)(F)F)nn2-c2ccc(S(N)(=O)=O)cc2)cc1 [Celecoxib] | no effect | no effect | 
3 | show no effects | > 100 µM | O=C(O)Cc1ccccc1Nc1c(Cl)cccc1Cl [Diclofenac] |  |  | substantially lack the ability to increase coronary heart flow
4 | show no effects | > 100 µM | Cc1ccc(-c2ncc(Cl)cc2-c2ccc(S(C)(=O)=O)cc2)cn1 [Etorecoxib] |  |  | substantially lack the ability to increase coronary heart flow
5 | possess PDE5 activity in the μM range |  | CS(=O)(=O)Nc1cc2c(cc1Sc1ccc(F)cc1F)C(=O)CC2 [L-745337] |  |  | 
6 | show no effects | > 100 µM | Cc1ccc(Nc2c(F)cccc2Cl)c(CC(=O)O)c1 [Lumiracoxib] |  |  | substantially lack the ability to increase coronary heart flow
7 | show no effects | > 100 µM | CCC(=O)NS(=O)(=O)c1ccc(-c2c(-c3ccccc3)noc2C)cc1 [Parecoxib] |  |  | substantially lack the ability to increase coronary heart flow
8 | show no effects | > 100 µM | CS(=O)(=O)c1ccc(C2=C(c3ccccc3)C(=O)OC2)cc1 [Rofecoxib] |  |  | substantially lack the ability to increase coronary heart flow
9 | show no effects | > 100 µM | Cc1onc(-c2ccccc2)c1-c1ccc(S(N)(=O)=O)cc1 [Valdecoxib] |  |  | substantially lack the ability to increase coronary heart flow
10 | possess PDE5 activity in the μM range |  | CS(=O)(=O)Nc1cc2c(cc1Oc1ccc(F)cc1F)C(=O)CC2 [flosulide] |  |  | 
11 | possess PDE5 activity in the μM range |  | CS(=O)(=O)Nc1ccc([N+](=O)[O-])cc1Oc1ccccc1 [nimesulide] |  |  | 
